Laboratory results from patent publication US20210094971A1, “HETEROCYCLIC COMPOUNDS” (Hoffmann-La Roche Inc., priority 2019, published 2021).

Target: T1, MAGL (Homo sapiens, UniProt Q99685)
T1 sequence (Q99685 1-303): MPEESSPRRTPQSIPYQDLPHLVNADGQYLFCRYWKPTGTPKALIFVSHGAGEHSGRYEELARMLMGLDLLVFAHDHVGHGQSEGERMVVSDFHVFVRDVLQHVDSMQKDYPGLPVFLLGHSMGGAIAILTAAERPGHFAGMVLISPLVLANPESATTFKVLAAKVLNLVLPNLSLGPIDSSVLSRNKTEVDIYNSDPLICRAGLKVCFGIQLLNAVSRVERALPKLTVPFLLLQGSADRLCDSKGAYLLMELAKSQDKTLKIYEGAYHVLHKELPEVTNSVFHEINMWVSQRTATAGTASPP
Assay: 2-AG assay (MAGL inhibitory activity, hydrolysis of 2-arachidonoylglycerol followed by mass spectrometry)
Type: biochemical
Details: 50 pM MAGL, 8 μM 2-arachidonoylglycerol, 15 min pre-incubation, 30 min incubation at RT
Procedure: Compounds were profiled for MAGL inhibitory activity by determining the enzymatic activity by following the hydrolysis of the natural substrate 2-arachidonoylglycerol resulting in arachidonic acid, which can be followed by mass spectrometry. This assay is hereinafter abbreviated “2-AG assay”.
The 2-AG assay was carried out in 384 well assay plates (PP, Greiner Cat# 784201) in a total volume of 20 μL. Compound dilutions were made in 100% DMSO (VWR Chemicals 23500.297) in a polypropylene plate in 3-fold dilution steps to give a final concentration range in the assay from 12.5 μM to 0.8 pM. 0.25 μL compound dilutions (100% DMSO) were added to 9 μL MAGL in assay buffer (50 mM TRIS (GIBCO, 15567-027), 1 mM EDTA (Fluka, 03690-100 ml), 0.01% (v/v) Tween. After shaking, the plate was incubated for 15 min at RT. To start the reaction, 10 μL 2-arachidonoylglycerol in assay buffer was added. The final concentrations in the assay was 50 pM MAGL and 8 μM 2-arachidonoylglyerol. After shaking and 30 min incubation at RT, the reaction was quenched by the addition of 40 μL of acetonitrile containing 4 μM of d8-arachidonic acid. The amount of arachidonic acid was traced by an online SPE system (Agilent Rapidfire) coupled to a triple quadrupole mass spectrometer (Agilent 6460). A C18 SPE cartridge (G9205A) was used in an acetonitrile/water liquid setup. The mass spectrometer was operated in negative electrospray mode following the mass transitions 303.1→259.1 for arachidonic acid and 311.1→267.0 for d8-arachidonic acid. The activity of the compounds was calculated based on the ratio of intensities [arachidonic acid/d8-arachidonic acid].

| Compound | IC50 [nM] |
| --- | --- |
| O=C1CO[C@H]2CCN(C(=O)N3C[C@H]4C[C@@H]3C[C@@H]4OCc3cc4c(cn3)CCCC4)C[C@H]2N1 (relative stereo) [Example 9, (4aR,8aS)-6-[rel-(1R,4R,5S)-5-(5,6,7,8-tetrahydroisoquinolin-3-ylmethoxy)-2-azabicyclo[2.2.1]heptane-2-carbonyl]-4,4a,5,7,8,8a-hexahydropyrido[4,3-b][1,4]oxazin-3-one] | 76 |
| O=C1CO[C@H]2CCN(C(=O)N3C[C@@H]4C[C@H](OCc5ccc(C(F)(F)F)cc5F)[C@H]3C4)C[C@H]2N1 (relative stereo) [Example 18, (4aR,8aS)-6-[rel-(1R,4S,6S)-6-[[2-fluoro-4-(trifluoromethyl)phenyl]methoxy]-2-azabicyclo[2.2.1]heptane-2-carbonyl]-4,4a,5,7,8,8a-hexahydropyrido[4,3-b][1,4]oxazin-3-one] | 1050 |
| O=C1CO[C@H]2CCN(C(=O)N3C[C@H]4C[C@@H]3[C@H](OCc3ccc(C(F)(F)F)cc3F)C4)C[C@H]2N1 (relative stereo) [Example 19, (4aR,8aS)-6-[rel-(1R,4S,6R)-6-[[2-fluoro-4-(trifluoromethyl)phenyl]methoxy]-2-azabicyclo[2.2.1]heptane-2-carbonyl]-4,4a,5,7,8,8a-hexahydropyrido[4,3-b][1,4]oxazin-3-one] | 1140 |
| O=C1CO[C@H]2CCN(C(=O)N3CC4CN(S(=O)(=O)c5ccccc5)CC4C3)C[C@H]2N1 (stereo partly drawn) [Example 3, (4aR,8aS)-6-(5-(benzenesulfonyl)-1,3,3a,4,6,6a-hexahydropyrrolo[3,4-c]pyrrole-2-carbonyl)-4,4a,5,7,8,8a-hexahydropyrido[4,3-b][1,4]oxazin-3-one] | 2280 |
| O=C1CO[C@H]2CCN(C(=O)N3CC4CN(S(=O)(=O)c5ccc(C(F)(F)F)cc5)CC4C3)C[C@H]2N1 (stereo partly drawn) [Example 4, (4aR,8aS)-6-(5-[4-(trifluoromethyl)phenyl]sulfonyl-1,3,3a,4,6,6a-hexahydropyrrolo[3,4-c]pyrrole-2-carbonyl)-4,4a,5,7,8,8a-hexahydropyrido[4,3-b][1,4]oxazin-3-one] | 929 |
| O=C1CO[C@H]2CCN(C(=O)N3CC4CC(OCc5ccc(C(F)(F)F)cc5F)CC4C3)C[C@H]2N1 (stereo partly drawn) [Example 16, (4aR,8aS)-6-[5-[[2-fluoro-4-(trifluoromethyl)phenyl]methoxy]-3,3a,4,5,6,6a-hexahydro-1H-cyclopenta[c]pyrrole-2-carbonyl]-4,4a,5,7,8,8a-hexahydropyrido[4,3-b][1,4]oxazin-3-one] | 85.9 |
| O=C1CO[C@H]2CCN(C(=O)N3CC4CC(C3)C4OCc3ccc(C(F)(F)F)cc3F)C[C@H]2N1 (stereo partly drawn) [Example 22, (4aR,8aS)-6-[6-[[2-fluoro-4-(trifluoromethyl)phenyl]methoxy]-3-azabicyclo[3.1.1]heptane-3-carbonyl]-4,4a,5,7,8,8a-hexahydropyrido[4,3-b][1,4]oxazin-3-one] | 217 |
| O=C1CO[C@H]2CCN(C(=O)N3[C@@H]4COC[C@H]3C[C@@H](OCc3ccc(C(F)(F)F)cc3F)C4)C[C@H]2N1 [Example 23, (4aR,8aS)-6-[(1S,5R)-7-[[2-fluoro-4-(trifluoromethyl)phenyl]methoxy]-3-oxa-9-azabicyclo[3.3.1]nonane-9-carbonyl]-4,4a,5,7,8,8a-hexahydropyrido[4,3-b][1,4]oxazin-3-one] | 628 |
| O=C1CO[C@H]2CCN(C(=O)N3[C@@H]4CC[C@H]3C[C@H](OCc3ccc(C(F)(F)F)cc3F)C4)C[C@H]2N1 [Example 24, (4aR,8aS)-6-[(1S,5R)-3-[[2-fluoro-4-(trifluoromethyl)phenyl]methoxy]-8-azabicyclo[3.2.1]octane-8-carbonyl]-4,4a,5,7,8,8a-hexahydropyrido[4,3-b][1,4]oxazin-3-one] | 1.4 |

The remaining lines, values ahead:

| IC50 [nM] | Compound |
| --- | --- |
| 8.9 | O=C1CO[C@H]2CCN(C(=O)N3CC4CC(Oc5ccccc5Cl)CC4C3)C[C@H]2N1 (stereo partly drawn) [Example 1, (4aR,8aS)-6-(5-(2-chlorophenoxy)-3,3a,4,5,6,6a-hexahydro-1H-cyclopenta[c]pyrrole-2-carbonyl)-4,4a,5,7,8,8a-hexahydropyrido[4,3-b][1,4]oxazin-3-one] |
| 19.8 | Cc1ccccc1OC1CC2CN(C(=O)N3CC[C@@H]4OCC(=O)N[C@@H]4C3)CC2C1 (stereo partly drawn) [Example 2, (4aR,8aS)-6-(5-(2-methylphenoxy)-3,3a,4,5,6,6a-hexahydro-1H-cyclopenta[c]pyrrole-2-carbonyl)-4,4a,5,7,8,8a-hexahydropyrido[4,3-b][1,4]oxazin-3-one] |
| 676 | O=C1CO[C@H]2CCN(C(=O)N3CC4CN(S(=O)(=O)c5ccc(F)cc5Cl)CC4C3)C[C@H]2N1 (stereo partly drawn) [Example 5, (4aR,8aS)-6-(5-(2-chloro-4-fluoro-phenyl)sulfonyl-1,3,3a,4,6,6a-hexahydropyrrolo[3,4-c]pyrrole-2-carbonyl)-4,4a,5,7,8,8a-hexahydropyrido[4,3-b][1,4]oxazin-3-one] |
| 261 | O=C1CO[C@H]2CCN(C(=O)N3C[C@@H]4[C@H](C3)[C@H]4c3ccn(-c4ccc(F)cc4)n3)C[C@H]2N1 [Example 6, (4aR,8aS)-6-[(1R,5S,6r)-6-[1-(4-fluorophenyl)pyrazol-3-yl]-3-azabicyclo[3.1.0]hexane-3-carbonyl]-4,4a,5,7,8,8a-hexahydropyrido[4,3-b][l,4]oxazin-3-one] |
| 45.3 | O=C1CO[C@H]2CCN(C(=O)N3C[C@@H]4[C@H](C3)[C@H]4c3ccn(-c4ccc(F)c(C(F)(F)F)c4)n3)C[C@H]2N1 [Example 7, (4aR,8aS)-6-[(1R,5S,6r)-6-[1-[4-fluoro-3-(trifluoromethyl)phenyl]pyrazol-3-yl]-3-azabicyclo[3.1.0]hexane-3-carbonyl]-4,4a,5,7,8,8a-hexahydropyrido[4,3-b][1,4]oxazin-3-one] |
| 112 | O=C1CO[C@H]2CCN(C(=O)N3C[C@@H]4[C@H](C3)[C@H]4c3ccn(-c4ccc(F)cc4Cl)n3)C[C@H]2N1 [Example 8, (4aR,8aS)-6-[(1R,5S,6r)-6-[1-(2-chloro-4-fluoro-phenyl)pyrazol-3-yl]-3-azabicyclo[3.1.0]hexane-3-carbonyl]-4,4a,5,7,8,8a-hexahydropyrido[4,3-b][1,4]oxazin-3-one] |
| 6.3 | O=C1CO[C@H]2CCN(C(=O)N3C[C@@H]4[C@@H](COc5ccc(F)cc5Cl)[C@@H]4C3)C[C@H]2N1 [Example 12, (4aR,8aS)-6-[(1R,5S,6r)-6-[(2-chloro-4-fluoro-phenoxy)methyl]-3-azabicyclo[3.1.0]hexane-3-carbonyl]-4,4a,5,7,8,8a-hexahydropyrido[4,3-b][1,4]oxazin-3-one] |
| 5.1 | O=C1CO[C@H]2CCN(C(=O)N3CC4CCC(C3)C4COc3ccc(F)cc3Cl)C[C@H]2N1 (stereo partly drawn) [Example 13, (4aR,8aS)-6-[8-[(2-chloro-4-fluoro-phenoxy)methyl]-3-azabicyclo[3.2.1]octane-3-carbonyl]-4,4a,5,7,8,8a-hexahydropyrido[4,3-b][1,4]oxazin-3-one] |
| 3.5 | O=C1CO[C@H]2CCN(C(=O)N3CC4CC(Oc5ccc(F)cc5Cl)CC4C3)C[C@H]2N1 (stereo partly drawn) [Example 14, (4aR,8aS)-6-[5-(2-chloro-4-fluoro-phenoxy)-3,3a,4,5,6,6a-hexahydro-1H-cyclopenta[c]pyrrole-2-carbonyl]-4,4a,5,7,8,8a-hexahydropyrido[4,3-b][1,4]oxazin-3-one] |
| 11 | O=C1CO[C@H]2CCN(C(=O)N3CC4CC(OCc5ccc(F)cc5Cl)CC4C3)C[C@H]2N1 (stereo partly drawn) [Example 15, (4aR,8aS)-6-[5-[(2-chloro-4-fluoro-phenyl)methoxy]-3,3a,4,5,6,6a-hexahydro-1H-cyclopenta[c]pyrrole-2-carbonyl]-4,4a,5,7,8,8a-hexahydropyrido[4,3-b][1,4]oxazin-3-one] |
| 4.7 | O=C1CO[C@H]2CCN(C(=O)N3CC4CC(Oc5ccc(C(F)(F)F)cc5F)CC4C3)C[C@H]2N1 (stereo partly drawn) [Example 17, (4aR,8aS)-6-[5-[2-fluoro-4-(trifluoromethyl)phenoxy]-3,3a,4,5,6,6a-hexahydro-1H-cyclopenta[c]pyrrole-2-carbonyl]-4,4a,5,7,8,8a-hexahydropyrido[4,3-b][1,4]oxazin-3-one] |
| 32 | O=C1CO[C@H]2CCN(C(=O)N3C[C@@H]4[C@@H](COc5ccc(C(F)(F)F)cc5F)[C@@H]4C3)C[C@H]2N1 [Example 25, (4aR,8aS)-6-[(1R,5S,6r)-6-[[2-fluoro-4-(trifluoromethyl)phenoxy]methyl]-3-azabicyclo[3.1.0]hexane-3-carbonyl]-4,4a,5,7,8,8a-hexahydropyrido[4,3-b][1,4]oxazin-3-one] |
